# Results reported in patent US20150344540A1, “NOVEL GLP-1 RECEPTOR AGONISTS WITH CHOLESTEROL EFFLUX ACTIVITY” (NOVO NORDISK A/S, priority 2012, published 2015).
# Like-named read-outs stand apart in the source and are kept apart here. Where a SMILES comes first, the peptide text is derived from it. [ ]: non-standard residue; d: D form. Aib = CC(C)(N)C(=O)O
# Key:
# [1] = test system: Mouse monocyte/macrophage cell line, RAW 264.7; experiment: Cholesterol efflux assay (3H-cholesterol, macrophage cell line); assay type: cell-based; details: RAW 264.7, 4 hrs incubation, 0.1% human serum albumin, ABCA1-mediated efflux
# human GLP-1 receptor = human GLP-1 receptor (Homo sapiens, UniProt P43220); experiment: Functional GLP-1 receptor assay, in vitro potency (CRE luciferase; whole cells); assay type: cell-based; details: BHK cells expressing human GLP-1 receptor
# human GLP-1 receptor, sequence (P43220 24-463): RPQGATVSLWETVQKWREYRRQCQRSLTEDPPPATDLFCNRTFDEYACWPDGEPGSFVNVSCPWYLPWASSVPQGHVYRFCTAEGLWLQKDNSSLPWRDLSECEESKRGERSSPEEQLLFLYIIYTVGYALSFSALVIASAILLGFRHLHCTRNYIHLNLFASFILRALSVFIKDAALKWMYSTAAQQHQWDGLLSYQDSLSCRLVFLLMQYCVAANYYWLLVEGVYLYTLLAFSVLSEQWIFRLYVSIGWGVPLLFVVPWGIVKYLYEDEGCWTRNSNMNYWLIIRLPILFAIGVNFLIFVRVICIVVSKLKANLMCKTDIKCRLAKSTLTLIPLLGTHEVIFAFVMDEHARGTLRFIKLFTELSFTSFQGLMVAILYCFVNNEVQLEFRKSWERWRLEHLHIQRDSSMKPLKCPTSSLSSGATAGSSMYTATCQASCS
# [2] = 0% HSA, read-out: GLP1R CRE luc 0% HSA EC50 Mean Value
EC50 (human GLP-1 receptor; [2]) [nM],"EC50 (human GLP-1 receptor; GLP1R CRE luc 1% HSA EC50 Mean Value, 1% HSA) [nM]",SMILES,4 h Cholesterol Efflux Emax [1] [%]
0.034,–,"CC[C@H](C)[C@H](NC(=O)[C@H](Cc1ccccc1)NC(=O)[C@H](CCC(=O)O)NC(=O)[C@H](CCCCN)NC(=O)[C@@H](NC(=O)[C@H](C)NC(=O)[C@H](CCC(=O)O)NC(=O)CNC(=O)[C@H](CCC(=O)O)NC(=O)[C@H](CC(C)C)NC(=O)[C@H](Cc1ccc(O)cc1)NC(=O)[C@H](CO)NC(=O)[C@H](CO)NC(=O)[C@@H](NC(=O)[C@H](CC(=O)O)NC(=O)[C@H](CO)NC(=O)[C@@H](NC(=O)[C@H](Cc1ccccc1)NC(=O)[C@@H](NC(=O)CNC(=O)[C@H](CCC(=O)O)NC(=O)C(C)(C)NC(=O)[C@@H](N)Cc1c[nH]cn1)[C@@H](C)O)[C@@H](C)O)C(C)C)C(C)C)C(=O)N[C@@H](C)C(=O)N[C@@H](Cc1c[nH]c2ccccc12)C(=O)N[C@@H](CC(C)C)C(=O)N[C@H](C(=O)N[C@@H](CCC(=O)O)C(=O)N[C@@H](CCCCN)C(=O)NCC(=O)N[C@@H](CCCCN)C(=O)N[C@@H](CCC(=O)O)C(=O)N[C@@H](Cc1ccccc1)C(=O)N[C@@H](CC(C)C)C(N)=O)C(C)C [Compound 113, [Aib8,Glu23,Val25,Glu34,Lys35,Gly36,Lys37]-GLP-1-(7-37)-peptidyl-Glu-Phe-Leu amide] (H-H[Aib]EGTFTSDVSSYLEGEAVKEFIAWLVEKGKEFL-NH2)",143
–,0.273,CC[C@H](C)[C@H](NC(=O)[C@H](Cc1ccccc1)NC(=O)[C@H](CCC(=O)O)NC(=O)[C@H](CCC(N)=O)NC(=O)[C@@H](NC(=O)[C@H](C)NC(=O)[C@H](CCC(=O)O)NC(=O)CNC(=O)[C@H](CCC(=O)O)NC(=O)[C@H](CC(C)C)NC(=O)[C@H](Cc1ccc(O)cc1)NC(=O)[C@H](CO)NC(=O)[C@H](CO)NC(=O)[C@@H](NC(=O)[C@H](CC(=O)O)NC(=O)[C@H](CO)NC(=O)[C@@H](NC(=O)[C@H](Cc1ccccc1)NC(=O)[C@@H](NC(=O)CNC(=O)[C@H](CCC(=O)O)NC(=O)C(C)(C)NC(=O)[C@@H](N)Cc1c[nH]cn1)[C@@H](C)O)[C@@H](C)O)C(C)C)C(C)C)C(=O)N[C@@H](C)C(=O)N[C@@H](Cc1c[nH]c2ccccc12)C(=O)N[C@@H](CC(C)C)C(=O)N[C@H](C(=O)N[C@@H](CCC(=O)O)C(=O)N[C@@H](C)C(=O)N[C@H](C(=O)N[C@@H](C)C(=O)N[C@@H](CCC(=O)O)C(=O)N[C@@H](Cc1ccccc1)C(=O)N[C@@H](CC(C)C)C(N)=O)C(C)C)C(C)C [Compound 94] (H-H[Aib]EGTFTSDVSSYLEGEAVQEFIAWLVEAVAEFL-NH2),74
0.157,–,"CC[C@H](C)[C@H](NC(=O)[C@H](Cc1ccccc1)NC(=O)[C@H](CCC(=O)O)NC(=O)[C@H](CCCCN)NC(=O)[C@@H](NC(=O)[C@H](C)NC(=O)[C@H](CCC(=O)O)NC(=O)CNC(=O)[C@H](CCC(=O)O)NC(=O)[C@H](CC(C)C)NC(=O)[C@H](Cc1ccc(O)cc1)NC(=O)[C@H](CO)NC(=O)[C@H](CO)NC(=O)[C@@H](NC(=O)[C@H](CC(=O)O)NC(=O)[C@H](CO)NC(=O)[C@@H](NC(=O)[C@H](Cc1ccccc1)NC(=O)[C@@H](NC(=O)CNC(=O)[C@H](CCC(=O)O)NC(=O)C(C)(C)NC(=O)[C@@H](N)Cc1c[nH]cn1)[C@@H](C)O)[C@@H](C)O)C(C)C)C(C)C)C(=O)N[C@@H](Cc1c[nH]c2ccccc12)C(=O)N[C@@H](Cc1c[nH]c2ccccc12)C(=O)N[C@@H](CC(C)C)C(=O)N[C@H](C(=O)N[C@@H](CCC(=O)O)C(=O)N[C@@H](CCCCN)C(=O)NC(C)(C)C(=O)N[C@@H](CCCCN)C(=O)N[C@@H](CCC(=O)O)C(=O)N[C@@H](Cc1ccccc1)C(=O)N[C@@H](CC(C)C)C(N)=O)C(C)C [Compound 50, [Aib8,Glu23,Val25,Trp30,Glu34,Lys35,Aib36,Lys37]-GLP-1-(7-37)-peptidyl-Glu-Phe-Leu amide] (H-H[Aib]EGTFTSDVSSYLEGEAVKEFIWWLVEK[Aib]KEFL-NH2)",87
